Molecular target: T1, Recombinant human IKKβ (IKK2) (Homo sapiens, UniProt O14920)
T1 construct: Recombinant human IKKβ (residues 1-737); GST (C); made in house
T1 sequence (O14920 1-737): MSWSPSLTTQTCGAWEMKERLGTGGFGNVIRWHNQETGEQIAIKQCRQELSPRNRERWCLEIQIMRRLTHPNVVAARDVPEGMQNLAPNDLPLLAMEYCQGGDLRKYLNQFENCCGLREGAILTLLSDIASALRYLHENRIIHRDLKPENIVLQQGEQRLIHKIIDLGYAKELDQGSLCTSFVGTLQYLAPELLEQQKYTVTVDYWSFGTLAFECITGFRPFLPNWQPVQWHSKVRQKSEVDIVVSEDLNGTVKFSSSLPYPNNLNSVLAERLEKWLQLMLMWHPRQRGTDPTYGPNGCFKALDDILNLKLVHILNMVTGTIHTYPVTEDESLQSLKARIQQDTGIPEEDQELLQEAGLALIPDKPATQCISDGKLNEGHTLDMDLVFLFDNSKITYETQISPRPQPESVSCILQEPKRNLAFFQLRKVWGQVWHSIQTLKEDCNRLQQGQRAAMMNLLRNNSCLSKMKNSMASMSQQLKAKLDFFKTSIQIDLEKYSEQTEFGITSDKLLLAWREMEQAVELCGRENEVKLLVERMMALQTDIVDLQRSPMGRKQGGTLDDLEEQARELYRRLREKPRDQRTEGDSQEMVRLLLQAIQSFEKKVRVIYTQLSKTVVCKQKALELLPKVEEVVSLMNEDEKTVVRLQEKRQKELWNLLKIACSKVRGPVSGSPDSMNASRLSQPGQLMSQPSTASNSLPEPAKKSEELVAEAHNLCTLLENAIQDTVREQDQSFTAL
Assay: IKK2 Assay (TR-FRET, phosphorylation of GST-IκBα)
Type: biochemical
Conditions: recombinant human IKKβ (residues 1-737), 5 nM; GST-IκBα 25 nM, ATP 1 μM; 30 minutes at room temperature; read-out: pIC50 against IKK2 (converted)
Description: Recombinant human IKKβ (residues 1-737) was expressed in baculovirus as a C-terminal GST-tagged fusion protein, and its activity was assessed using a time-resolved fluorescence resonance energy transfer (TR-FRET) assay. Briefly, IKK2 (5 nM final) diluted in assay buffer (50 mM HEPES, 10 mM MgCl2, 1 mM CHAPS pH 7.4 with 1 mM DTT and 0.01% w/v BSA) was added to wells containing various concentrations of compound or DMSO vehicle (3% final). The reaction was initiated by the addition of GST-IκBα substrate (25 nM final)/ATP (1 μM final), in a total volume of 30 μl. The reaction was incubated for 30 minutes at room temperature, then terminated by the addition of 15 μl of 50 mM EDTA. Detection reagent (15 μl) in buffer (100 mM HEPES pH 7.4, 150 mM NaCl and 0.1% w/v BSA) containing antiphosphoserine-IκBα-32/36 monoclonal antibody 12C2 (Cell Signalling Technology, Beverly Mass., USA) labelled with W-1024 europium chelate (Wallac OY, Turku, Finland), and an APC-labelled anti-GST antibody (Prozyme, San Leandro, Calif., USA) was added and the reaction was further incubated for 60 minutes at room temperature. The degree of phosphorylation of GST-IκBα was measured using a Packard Discovery plate reader (Perkin-Elmer Life Sciences, Pangbourne, UK) as a ratio of specific 665 nm energy transfer signal to reference europium 620 nm signal.

Row | IC50 [µM] | Structure (SMILES)
1 | ≤ 10 | Cc1cc2cc(-c3ccccc3)cc(C(N)=O)c2[nH]1 [Example 1, 2-methyl-5-phenyl-1H-indole-7-carboamide]
2 | ≤ 10 | NC(=O)c1cc2cc(-c3ccccc3)cc(C(N)=O)c2[nH]1 [Example 2, 5-phenyl-1H-indole-2,7-dicarboxamide]

— US20080293802A1, “Chemical Compounds” (Smithline Beecham Corporation, priority 2005, published 2008)
